Reference: patent US5071848A, “Tricyclic quinoline antineoplastic agents” (Abbott Laboratories, priority 1989, dated 1991)
Converted amounts (≈) assume the structure as drawn.

Columns and labels:
DNA topoisomerase II = assay: DNA Breakage Assay: topoisomerase II-mediated DNA breakage (linearized 32P-labeled PBR 322 plasmid, agarose gel); assay type: biochemical, calf; parameters: key to Topoisomerase II-mediated DNA breakage, extent of breakage: SB: strong breakage; MB: moderate breakage; WB: weak breakage; conditions: for Topoisomerase II-mediated DNA breakage, extent of breakage: at the concentration given; for Topoisomerase II-mediated DNA breakage, Concentration: concentration of compound which cleaves the DNA to smaller fragments, 30 minutes incubation
Procedure: Antitumor activity was assayed using the DNA Breakage Assay described below.
The DNA breakage assay requires two major reagents: DNA topoisomerase II and radiolabeled DNA. DNA topoisomerase II (topo II) was isolated from calf thymus as described by B. D. Holligan, et al. in J. Biol. Chem., 260, 2475-2482 (1985). Pure enzyme or partially purified extracts enriched in topo II activity may be used. PBR 322 plasmid was used as the DNA substrate. This plasmid, which is isolated in the closed circular form, is first linearized using, a restriction enzyme which cuts the plasmid in only one place. The newly exposed ends of the plasmid are then labeled with the radionuclide, 32P, using standard techniques described by T. Maniatis, et al. in "Molecular Cloning", Cold Spring Harbor Press, p. 115 (1982).
The enzyme and the radiolabeled DNA are added together first, then drug is added. After an incubation period of 30 minutes, the mixtures are quenched using 1% SDS. The mixtures are then subjected to agarose gel electrophoresis which separates the full length, linear substrate DNA from any small fragments that might be formed as a consequence of drug action. Smaller fragments run with a higher mobility. The distribution of the DNA species in the gel is assessed by autoradiography as described by T. Maniatis, et al. in "Molecular Cloning", Cold Spring Harbor Press, p. 115 (1982).
DNA breakage activity is assessed based on the level of substrate lost, the level of DNA appearing as smaller pieces running faster in the gel, and the distribution of these smaller pieces in the gel. The last criterion is important since drug-induced DNA cleavage that is enzyme-mediated fragmentation results in specific banding patterns due to the fact that the enzyme binds to specific sequences along the DNA molecule. A definite banding pattern is thus indicative of topo II-mediated cleavage and correlates well with anti-tumor activity.

[1] = system: P388.D1 leukemia cell line; assay: In vitro cytotoxicity assay (three day MTT microtiter assay), P388.D1; assay type: cell-based; conditions: Mus musculus, P388D1, 72 h, read-out: In vitro tumor cell cytotoxicity (IC50), P388.D1
Procedure: The cytotoxity of the compounds of the present invention is illustrated in Table 6. IC50 's were measured in a colorimetric assay for cytotoxic activity against cultured cells according to the protocol described below:
(§1) A three day microtiter assay is used to measure the growth inhibition of cultured cells exposed to a range of drug concentrations. Metabolic activity is measured by the cell's ability to reduce the tetrazolium dye, MTT (3-(4,5-dimethylthiazol-2-yl)-2,5-diphenyltetrazolium bromide) to a quantifiable colored end-product, which absorbs at 570 nm in the visible spectrum. Surviving cells reduce the MTT dye.
(§2) Test compounds are dissolved in dimethyl sulfoxide (DMSO) and diluted, first with Earle's Balanced Salt Solution, followed by culture medium, to twice the highest concentration of compound to be tested. From this concentrated stock, two-fold serial dilutions are prepared in 96-well microtiter trays, each well containing twice the desired final concentration of compound. Each concentration is tested in triplicate and compared to triplicate drug-free controls.
(§3) The cells are grown in the same medium used for diluting the compounds. After harvesting by trypsinization*, viable cell counts are determined and cell density is adjusted to 25,000 cells/mL. Inoculum (0.1 mL), containing the cells, is then added to each well for a final concentration of 2,500 cells per well. Addition of the inoculum dilutes the test compounds to the desired final concentration.
(§4) *Adherent cells are harvested by trypsinization as follows:
(§5) 1. Remove the medium by aspiration.
(§6) 2. Rinse cell monolayer twice with Earle's Balanced Salt Solution.
(§7) 3. Add trypsin (0.05%)/EDTA (0.53 mM). For each 25 cm^2 use approximately 0.2 mL of solution, tilt to cover the monolayer, then withdraw trypsin leaving only a thin film of solution. Incubate at room temperature until cell monolayer detaches.
(§8) 4. When the cells have detached as determined by visual and/or microscopic observation, add medium containing fetal calf serum to stop the action of the trypsin and resuspend the cells. Triturate to aid dissociation of cell clumps.
(§9) 5. Determine the number of cells per milliliter by electronic cell counter (e.g. Coulter Counter) or by mixing an aliquot of cell suspension with Trypan Blue (0.4% in normal saline) and counting the viable cells using a hemacytometer.
(§10) Microtiter trays are incubated for three days at 36° C. in a humidified atmosphere containing 5% carbon dioxide.
(§11) After three days, 20 microtiters of 5 mg/mL MTT in phosphate-buffered saline solution is added to each well. Trays are returned to the incubator for two to four hours to allow the surviving cells to reduce the dye. Medium and unreduced dye are removed by aspiration. DMSO is added to each well to dissolve the water insoluble, colored end product of the dye reduction so that it can be measured spectrophotometrically at 570 nm. The IC50 is determined as the concentration of compound tested required to reduce the absorbance at 570 nm to 50% of non-drug treated control values.
^c P388 D1 is a leukemia cell line.

P388 Leukemia = assay: In vivo antitumor activity, P388 Leukemia, increased lifespan; parameters: species or system BDF1 mice; conditions: IP, day 1 to day 5, survival monitored 30 days
Procedure: The in vivo data presented in Table 7 was determined in BDF1 mice for two murine cancer models, using 6 to 10 animals per test group. In the case of Lewis Lung carcinoma (LL) the mice are inoculated subcutaneously (SC) in the axillary region with a puncture in the inguinal area with the tumor on day 0. The compound being tested is administered intraperitoneally (IP) from day 1 to day 9 for a total of nine injections. The tumors are weighed on day 14 and the weight inhibition expressed as the median weight ratio of treated (T) to control (C) tumors. In the case of P388 Leukemia cells, a suspension of diluted ascites fluid (0.1 mL) containing 1×10^6 cells is implanted IP into the mice on day 0 and the compound being tested is administered IP from day 1 to day 5 for a total of five injections. Survival was monitored for 30 days and the increased lifespan expressed as median survival time of treated (T) to control (C) mice.

A549 cell line = assay: In vitro cytotoxicity assay (three day MTT microtiter assay), A549; assay type: cell-based; conditions: Homo sapiens, 72 h; A549, three days, MTT; read-out: In vitro tumor cell cytotoxicity (IC50), A549
Procedure: (§12) IC50 's were measured in a colorimetric assay for cytotoxic activity against cultured cells according to the protocol described below:
as §1, §2, §3, §4, §5, §6, §7, §8, §9, §10
as §11, with “nm.” for “nm. The IC50 is determined as the concentration of compound tested required to reduce the absorbance at 570 nm to 50% of non-drug treated control values.”

Hela cells = assay: In vitro cytotoxicity assay (three day MTT microtiter assay), Hela; assay type: cell-based; conditions: Homo sapiens, 72 h; Hela cells, three days, MTT; read-out: In vitro tumor cell cytotoxicity (IC50), Hela
Procedure: as §12, §1, §2, §3, §4, §5, §6, §7, §8, §9, §10
as §11, with “nm.” for “nm. The IC50 is determined as the concentration of compound tested required to reduce the absorbance at 570 nm to 50% of non-drug treated control values.”

SMILES | Topoisomerase II-mediated DNA breakage, extent of breakage (DNA topoisomerase II) | Topoisomerase II-mediated DNA breakage, Concentration (DNA topoisomerase II) [µg/mL] | other results
CNC1CCN(c2cc3c(cc2F)c(=O)c2c(=O)[nH]sc2n3C2CC2)C1 (centres unmarked) [Example 25] | WB | 64 | –
CC1CN(c2cc3c(cc2F)c(=O)c2c(=O)[nH]sc2n3C2CC2)CCN1C (centres unmarked) [Example 22] | WB | 128 | –
O=c1[nH]sc2c1c(=O)c1cc(F)c(N3CCC(O)CC3)c(F)c1n2C1CC1 [Example 10] | SB | 32 | IC50 [1]: 0.23 µg/mL (≈ 0.585 µM); P388 Leukemia % T/C, median lifespan of treated compared to control mice (P388 Leukemia; 12.5 mg/kg): 129%; P388 Leukemia % T/C, median lifespan of treated compared to control mice (P388 Leukemia; 25 mg/kg): 133%; P388 Leukemia % T/C, median lifespan of treated compared to control mice (P388 Leukemia; 50 mg/kg): 133%; P388 Leukemia % T/C, median lifespan of treated compared to control mice (P388 Leukemia; 100 mg/kg): 117%; IC50 (A549 cell line): 2.9 µg/mL (≈ 7.37 µM)
O=c1[nH]sc2c1c(=O)c1cc(F)c(N3CCCNCC3)c(F)c1n2C1CC1 [Example 7] | SB | 32 | IC50 [1]: 0.2 µg/mL (≈ 0.51 µM)
O=c1[nH]sc2c1c(=O)c1cc(F)c(N3CCSCC3)c(F)c1n2C1CC1 [Example 6] | SB | 32 | IC50 [1]: 6.3 µg/mL (≈ 15.9 µM); IC50 (A549 cell line): 12.5 µg/mL (≈ 31.6 µM)
CN1CCN(c2c(F)cc3c(=O)c4c(=O)[nH]sc4n(C4CC4)c3c2F)CC1 [Example 4] | SB | 32 | IC50 (Hela cells): 1.3 µg/mL (≈ 3.31 µM)
O=c1[nH]sc2c1c(=O)c1cc(F)c(NC3CCN(Cc4ccccc4)CC3)c(F)c1n2C1CC1 [Example 13] | – | – | IC50 (Hela cells): 0.55 µg/mL (≈ 1.14 µM)
O=c1[nH]sc2c1c(=O)c1cc(F)c(N3CCN(CCO)CC3)c(F)c1n2C1CC1 [Example 5] | MB | 64 | P388 Leukemia % T/C, median lifespan of treated compared to control mice (P388 Leukemia; 2.5 mg/kg): 125%; P388 Leukemia % T/C, median lifespan of treated compared to control mice (P388 Leukemia; 5 mg/kg): 129%; P388 Leukemia % T/C, median lifespan of treated compared to control mice (P388 Leukemia; 10 mg/kg): 142%; P388 Leukemia % T/C, median lifespan of treated compared to control mice (P388 Leukemia; 12.5 mg/kg): 117%; IC50 (Hela cells): 4 µg/mL (≈ 9.47 µM)
O=c1[nH]sc2c1c(=O)c1cc(F)c(N3CCCCC3)c(F)c1n2C1CC1 [Example 8] | MB | 32 | IC50 (Hela cells): 3.9 µg/mL (≈ 10.3 µM)
NCC1CCN(c2c(F)cc3c(=O)c4c(=O)[nH]sc4n(C4CC4)c3c2F)C1 (centres unmarked) [Example 12] | SB | 32 | IC50 [1]: < 0.05 µg/mL; IC50 (A549 cell line): 0.3 µg/mL (≈ 0.764 µM)
O=c1[nH]sc2c1c(=O)c1cc(F)c(N3CCC(O)C3)cc1n2C1CC1 (centres unmarked) [Example 23] | WB | 32 to 128 | –
CCn1c2cc3c(cc2c(=O)c2c(=O)[nH]sc21)OCO3 [Example 29, 9-Ethyl-6,7-methylenedioxy-2,3,4,9-tetrahydroisothiazolo[5,4-b]quinoline-3,4-dione] | WB | 128 | –
CCn1c2s[nH]c(=O)c2c(=O)c2cc(F)c(N3CCNC(C)C3)c(F)c21 (centres unmarked) [Example 15] | MB | 128 | –
O=c1[nH]sc2c1c(=O)c1cc(F)c(N3CCCC(O)C3)c(F)c1n2C1CC1 (centres unmarked) [Example 9] | SB | 32 | IC50 [1]: 2.05 µg/mL (≈ 5.21 µM); IC50 (A549 cell line): 3.9 µg/mL (≈ 9.91 µM)
O=c1[nH]sc2c1c(=O)c1cc(F)c(N3CCNCC3)cc1n2C1CC1 [Example 19, 9-Cyclopropyl-6-fluoro-7-(1-piperazinyl)-2,3,4,9-tetrahydroisothiazolo[5,4-b]quinoline-3,4-dione] | MB | 64 | –
CCn1c2s[nH]c(=O)c2c(=O)c2cc(F)c(N3CCC(N)C3)c(F)c21 (centres unmarked) [Example 17] | WB | 32 to 64 | –
CCn1c2s[nH]c(=O)c2c(=O)c2cc(F)c(N3CCN(C)CC3)c(F)c21 [Example 16] | MB | 32 to 64 | –
O=c1[nH]sc2c1c(=O)c1cc(F)c(N3CCCC3)c(F)c1n2C1CC1 [Example 32] | WB | 64 | –
O=c1[nH]sc2c1c(=O)c1cc(F)c(N3CCOCC3)c(F)c1n2C1CC1 [Example 1, 9-Cyclopropyl-6,8-difluoro-7-(1-morpholino)-2,3,4,9-tetrahydroisothiazolo[5,4-b]quinoline-3,4-dione] | SB | 32 | P388 Leukemia % T/C, median lifespan of treated compared to control mice (P388 Leukemia; 31.25 mg/kg): 104%; P388 Leukemia % T/C, median lifespan of treated compared to control mice (P388 Leukemia; 62.5 mg/kg): 100%; P388 Leukemia % T/C, median lifespan of treated compared to control mice (P388 Leukemia; 125 mg/kg): 108%; P388 Leukemia % T/C, median lifespan of treated compared to control mice (P388 Leukemia; 250 mg/kg): 108%; IC50 (Hela cells): 7 µg/mL (≈ 18.5 µM)
